According to the supplement of paper PMC10307832:

Columns and labels:
Test in all cases: relative viability (nuclei count vs DMSO), 5 days (fraction); higher = more cells survive
CX-5461 = compound: Cc1cnc(CNC(=O)c2c(=O)c3ccc(N4CCCN(C)CC4)nc3n3c2sc2ccccc23)cn1 [CX-5461]
Summary of the method: (§1)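 Lung cancer cell lines were seeded into 1536-well plates, kept overnight at 37 °C and pinned with five library-drug doses (not always all listed) spaced by √10. After 5 days, nuclei were Hoechst-stained, imaged at 4× and counted with MetaXpress. Viability is treated-well nuclei over vehicle-well nuclei, taken as a median across plates. Plates needed control CV below 25% and at least one doubling.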

IMD-0354 = compound: O=C(Nc1cc(C(F)(F)F)cc(C(F)(F)F)c1)c1cc(Cl)ccc1O [IMD-0354]
Summary of the method: as §1

CX-5461 + Luminespib = compound: Cc1cnc(CNC(=O)c2c(=O)c3ccc(N4CCCN(C)CC4)nc3n3c2sc2ccccc23)cn1 [CX-5461] + CCNC(=O)c1noc(-c2cc(C(C)C)c(O)cc2O)c1-c1ccc(CN2CCOCC2)cc1 [Luminespib] (partner 0.01 µM)
Summary of the method: (§2)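 Lung cancer cell lines were pin-tool dosed in 1536-well plates on the day after seeding, with either a lone drug or a fixed anchor-drug dose plus five library-drug doses (not always all listed) in √10 steps. Nuclei were counted on 4× images after 5 days. Relative viability is the ratio of treated-well to vehicle-well nuclei counts, with each value a median of duplicate plates.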

CX-5461 + Foretinib = compound: Cc1cnc(CNC(=O)c2c(=O)c3ccc(N4CCCN(C)CC4)nc3n3c2sc2ccccc23)cn1 [CX-5461] + COc1cc2c(Oc3ccc(NC(=O)C4(C(=O)Nc5ccc(F)cc5)CC4)cc3F)ccnc2cc1OCCCN1CCOCC1 [Foretinib] (partner 0.25 µM)
Summary of the method: as §2

CX-5461 + OSI-027 = compound: Cc1cnc(CNC(=O)c2c(=O)c3ccc(N4CCCN(C)CC4)nc3n3c2sc2ccccc23)cn1 [CX-5461] + COc1cccc2cc(-c3nc([C@H]4CC[C@H](C(=O)O)CC4)n4ncnc(N)c34)[nH]c12 [OSI-027] (partner 0.5 µM)
Summary of the method: as §2

CX-5461 + Tozasertib = compound: Cc1cnc(CNC(=O)c2c(=O)c3ccc(N4CCCN(C)CC4)nc3n3c2sc2ccccc23)cn1 [CX-5461] + Cc1cc(Nc2cc(N3CCN(C)CC3)nc(Sc3ccc(NC(=O)C4CC4)cc3)n2)n[nH]1 [Tozasertib] (partner 0.1 µM)
Summary of the method: as §2

CX-5461 + Dasatinib = compound: Cc1cnc(CNC(=O)c2c(=O)c3ccc(N4CCCN(C)CC4)nc3n3c2sc2ccccc23)cn1 [CX-5461] + Cc1nc(Nc2ncc(C(=O)Nc3c(C)cccc3Cl)s2)cc(N2CCN(CCO)CC2)n1 [Dasatinib] (partner 0.075 µM)
Summary of the method: as §2

CX-5461 + Phenformin = compound: Cc1cnc(CNC(=O)c2c(=O)c3ccc(N4CCCN(C)CC4)nc3n3c2sc2ccccc23)cn1 [CX-5461] + N=C(N)NC(=N)NCCc1ccccc1 [Phenformin] (partner 250 µM)
Summary of the method: as §2

IMD-0354 + Luminespib = compound: O=C(Nc1cc(C(F)(F)F)cc(C(F)(F)F)c1)c1cc(Cl)ccc1O [IMD-0354] + CCNC(=O)c1noc(-c2cc(C(C)C)c(O)cc2O)c1-c1ccc(CN2CCOCC2)cc1 [Luminespib] (partner 0.01 µM)
Summary of the method: as §2

IMD-0354 + Foretinib = compound: O=C(Nc1cc(C(F)(F)F)cc(C(F)(F)F)c1)c1cc(Cl)ccc1O [IMD-0354] + COc1cc2c(Oc3ccc(NC(=O)C4(C(=O)Nc5ccc(F)cc5)CC4)cc3F)ccnc2cc1OCCCN1CCOCC1 [Foretinib] (partner 0.25 µM)
Summary of the method: as §2

IMD-0354 + OSI-027 = compound: O=C(Nc1cc(C(F)(F)F)cc(C(F)(F)F)c1)c1cc(Cl)ccc1O [IMD-0354] + COc1cccc2cc(-c3nc([C@H]4CC[C@H](C(=O)O)CC4)n4ncnc(N)c34)[nH]c12 [OSI-027] (partner 0.5 µM)
Summary of the method: as §2

IMD-0354 + Tozasertib = compound: O=C(Nc1cc(C(F)(F)F)cc(C(F)(F)F)c1)c1cc(Cl)ccc1O [IMD-0354] + Cc1cc(Nc2cc(N3CCN(C)CC3)nc(Sc3ccc(NC(=O)C4CC4)cc3)n2)n[nH]1 [Tozasertib] (partner 0.1 µM)
Summary of the method: as §2

IMD-0354 + Dasatinib = compound: O=C(Nc1cc(C(F)(F)F)cc(C(F)(F)F)c1)c1cc(Cl)ccc1O [IMD-0354] + Cc1nc(Nc2ncc(C(=O)Nc3c(C)cccc3Cl)s2)cc(N2CCN(CCO)CC2)n1 [Dasatinib] (partner 0.075 µM)
Summary of the method: as §2

IMD-0354 + Phenformin = compound: O=C(Nc1cc(C(F)(F)F)cc(C(F)(F)F)c1)c1cc(Cl)ccc1O [IMD-0354] + N=C(N)NC(=N)NCCc1ccccc1 [Phenformin] (partner 250 µM)
Summary of the method: as §2

NCI-H1623
relative viability (CX-5461; 0.01 µM): 1.18 | relative viability (CX-5461; 0.03162 µM): 0.979 | relative viability (CX-5461; 0.1 µM): 0.904 | relative viability (CX-5461; 0.3162 µM): 0.674 | relative viability (CX-5461; 1 µM): 0.94 | relative viability (IMD-0354; 0.04 µM): 0.962 | relative viability (IMD-0354; 0.1265 µM): 1 | relative viability (IMD-0354; 0.4 µM): 1.02 | relative viability (IMD-0354; 1.265 µM): 0.992 | relative viability (IMD-0354; 4 µM): 0.451 | relative viability (CX-5461 + Luminespib; first compound 0.01 µM): 0.528 | relative viability (CX-5461 + Luminespib; first compound 0.03162 µM): 0.542 | relative viability (CX-5461 + Luminespib; first compound 0.1 µM): 0.515 | relative viability (CX-5461 + Luminespib; first compound 0.3162 µM): 0.536 | relative viability (CX-5461 + Luminespib; first compound 1 µM): 0.51 | relative viability (CX-5461 + Foretinib; first compound 0.01 µM): 0.971 | relative viability (CX-5461 + Foretinib; first compound 0.03162 µM): 0.871 | relative viability (CX-5461 + Foretinib; first compound 0.1 µM): 0.809 | relative viability (CX-5461 + Foretinib; first compound 0.3162 µM): 0.934 | relative viability (CX-5461 + Foretinib; first compound 1 µM): 0.723 | relative viability (CX-5461 + OSI-027; first compound 0.01 µM): 0.394 | relative viability (CX-5461 + OSI-027; first compound 0.03162 µM): 0.434 | relative viability (CX-5461 + OSI-027; first compound 0.1 µM): 0.481 | relative viability (CX-5461 + OSI-027; first compound 0.3162 µM): 0.41 | relative viability (CX-5461 + OSI-027; first compound 1 µM): 0.417 | relative viability (CX-5461 + Tozasertib; first compound 0.01 µM): 0.465 | relative viability (CX-5461 + Tozasertib; first compound 0.03162 µM): 0.406 | relative viability (CX-5461 + Tozasertib; first compound 0.1 µM): 0.44 | relative viability (CX-5461 + Tozasertib; first compound 0.3162 µM): 0.463 | relative viability (CX-5461 + Tozasertib; first compound 1 µM): 0.372 | relative viability (CX-5461 + Dasatinib; first compound 0.01 µM): 0.524 | relative viability (CX-5461 + Dasatinib; first compound 0.03162 µM): 0.473 | relative viability (CX-5461 + Dasatinib; first compound 0.1 µM): 0.521 | relative viability (CX-5461 + Dasatinib; first compound 0.3162 µM): 0.568 | relative viability (CX-5461 + Dasatinib; first compound 1 µM): 0.534 | relative viability (CX-5461 + Phenformin; first compound 0.01 µM): 0.556 | relative viability (CX-5461 + Phenformin; first compound 0.03162 µM): 0.588 | relative viability (CX-5461 + Phenformin; first compound 0.1 µM): 0.556 | relative viability (CX-5461 + Phenformin; first compound 0.3162 µM): 0.616 | relative viability (CX-5461 + Phenformin; first compound 1 µM): 0.593 | relative viability (IMD-0354 + Luminespib; first compound 0.04 µM): 0.405 | relative viability (IMD-0354 + Luminespib; first compound 0.1265 µM): 0.369 | relative viability (IMD-0354 + Luminespib; first compound 0.4 µM): 0.461 | relative viability (IMD-0354 + Luminespib; first compound 1.265 µM): 0.332 | relative viability (IMD-0354 + Luminespib; first compound 4 µM): 0.287 | relative viability (IMD-0354 + Foretinib; first compound 0.04 µM): 0.896 | relative viability (IMD-0354 + Foretinib; first compound 0.1265 µM): 0.908 | relative viability (IMD-0354 + Foretinib; first compound 0.4 µM): 0.764 | relative viability (IMD-0354 + Foretinib; first compound 1.265 µM): 0.687 | relative viability (IMD-0354 + Foretinib; first compound 4 µM): 0.457 | relative viability (IMD-0354 + OSI-027; first compound 0.04 µM): 0.464 | relative viability (IMD-0354 + OSI-027; first compound 0.1265 µM): 0.395 | relative viability (IMD-0354 + OSI-027; first compound 0.4 µM): 0.458 | relative viability (IMD-0354 + OSI-027; first compound 1.265 µM): 0.409 | relative viability (IMD-0354 + OSI-027; first compound 4 µM): 0.37 | relative viability (IMD-0354 + Tozasertib; first compound 0.04 µM): 0.484 | relative viability (IMD-0354 + Tozasertib; first compound 0.1265 µM): 0.444 | relative viability (IMD-0354 + Tozasertib; first compound 0.4 µM): 0.398 | relative viability (IMD-0354 + Tozasertib; first compound 1.265 µM): 0.342 | relative viability (IMD-0354 + Tozasertib; first compound 4 µM): 0.277 | relative viability (IMD-0354 + Dasatinib; first compound 0.04 µM): 0.551 | relative viability (IMD-0354 + Dasatinib; first compound 0.1265 µM): 0.52 | relative viability (IMD-0354 + Dasatinib; first compound 0.4 µM): 0.499 | relative viability (IMD-0354 + Dasatinib; first compound 1.265 µM): 0.24 | relative viability (IMD-0354 + Dasatinib; first compound 4 µM): 0.348 | relative viability (IMD-0354 + Phenformin; first compound 0.04 µM): 0.565 | relative viability (IMD-0354 + Phenformin; first compound 0.1265 µM): 0.621 | relative viability (IMD-0354 + Phenformin; first compound 0.4 µM): 0.459 | relative viability (IMD-0354 + Phenformin; first compound 1.265 µM): 0.364 | relative viability (IMD-0354 + Phenformin; first compound 4 µM): 0.385
